Reference: US20200255844A1, “MULTIPLEXED RECEPTOR-LIGAND INTERACTION SCREENS” (THE REGENTS OF THE UNIVERSITY OF CALIFORNIA, priority 2017, published 2020)

Columns and labels:
Assay type in all cases: cell-based, mouse
MOR170-1 = assay: High-throughput multiplexed odorant screening (Smell-seq), 96-well, barcode RNA-seq readout; conditions: OR MOR170-1; pair called as hit, FDR=1%
Experimental: (§1) 10. High-Throughput Odorant Screening
(§2) The OR library cell line was thawed from a liquid nitrogen frozen stock into a T-225 flask (Corning) three days before seeding into a 96-well plate for screening. The library was seeded at 6,666 cells per well in 100 ul of DMEM. 24 hours later a working concentration of 1 ug/ml of doxycycline in DMEM was added to the wells. 24 hours after induction, the media was removed from each plate and replaced with 25 ul of odorant diluted in OptiMEM. Each odor was added at three different concentrations (10 uM, 100 uM, 1 mM) in triplicate with the same amount of final DMSO (1%). Each plate contained two control odorants at a three concentration (10 uM, 100 uM, 1 mM) in triplicate and three wells containing 1% DMSO dissolved in media. The library was incubated with odorants for three hours in a cell culture incubator with the lids removed.
(§3) After odor incubation, media was pipetted out of the plates and cells were lysed by adding 25 uL of ice-cold Cells-to-cDNA II Lysis Buffer (Thermo Fisher) and pipetting up and down to homogenize and lyse cells. The lysate was then heated to 75° C. for 15 minutes and flash frozen with liquid nitrogen and kept at −80 C until further processing. Then 0.5 uL DNase I (New England Biolabs) was added to lysate, and incubated at 37° C. for 15 minutes. To anneal the RT primer, 5 ul of lysate from each well was combined with 2.5 ul of 10 mM dNTPs (New England Biosciences), 1 ul of 2 uM gene specific RT primer (OL003), and 1.5 ul of H2O. The reaction was heated to 65° C. for 5 min and cooled back down to 0° C. After annealing, 1 ul of M-MuLV Reverse Transcriptase (Enzymatics), 1 ul of buffer, and 0.25 ul of RNase Inhibitor (Enzymatics) were added to each reaction. Reactions were incubated at 42° C. for 60 min and the RT enzyme was heat inactivated at 85° C. for 10 min.
(§4) For each batch, qPCR was performed on a few wells (OL005F and OL013) with SYBR FAST qPCR Mastermix to determine the number of cycles necessary for PCR based library preparation. The reaction and cycling conditions are optimized as follows: 95° C. for 3 minutes, 40 cycles of 95° C. for 3 seconds and 60° C. for 20 seconds. After qPCR, 5 ul of each RT reaction was combined with 0.4 ul of 10 uM primers containing sequencing adaptors (OL005F and OL013), 10 ul of NEB-Next Q5 Mastermix (New England Biosciences) and 4.2 ul H2O, the PCR was carried out according to the manufacturer's protocol. The forward primer contains the P7 adaptor sequence and an index identifying the well in the assay and the reverse primer contains the P5 adaptor sequence and an index identifying the plate in the assay. PCR products were pooled together by plate and purified with the DNA Clean and Concentrator Kit. Library concentrations were quantified using a Tape Station 2200 and a Qubit (Thermo Fisher). The libraries were sequenced with two index reads and a single end 75-bp read on a NextSeq 500 in high-output mode (Illumina).
(§5) 11. Analysis of Next-Generation Sequencing Data
(§6) Samples were identified via indexing by their PCR indexes adapters unique for each well (5′ end) and unique for each plate (3′ end). The well barcodes followed the 7 bp indexing scheme in (Illumina Sequencing Library Preparation for Highly Multiplexed Target Capture and Sequencing Matthias Meyer, Martin Kircher, Cold Spring Harb Protoc; 2010; doi:10.1101/pdb.prot5448). The plate indexing scheme followed the Illumina indexing scheme. Sequencing data was demultiplexed and 15 bp barcode sequences were counted with only exact matches by custom python and bash scripts.
(§7) 12. Statistical Methods for Calling Hits
(§8) Count data was then analyzed using the differential expression package EdgeR. To filter out ORs with low representation, we set a cutoff that an OR had to contain at least 0.5% of the reads from more than 399 of the 1954 test samples. This filtered out 3 of 42 ORs which were underrepresented in the cell library (MOR172-1, MOR176-1 and MOR181-1). […]

MOR139-1 = assay: High-throughput multiplexed odorant screening (Smell-seq), barcode RNA-seq readout; conditions: OR MOR139-1; pair called as hit, FDR=1%
From the text: (§9) We subsequently screened 182 odorants at three concentrations in triplicate against the OR cell library, the equivalent of ˜85,000 individual luciferase assays including controls (FIG. 10A, Table 2). Each 96-well plate in the assay contained positive control odorants and solvent DMSO wells for normalization (FIG. 16). We used the EdgeR software package to determine differentially responsive ORs based on a negative binomial model of barcode counts. We found 114 OR-odorant interactions (out of 7,200 possible), 81 of which are novel, and 24 interactions with 15 orphan receptors (FIG. 10C, FIG. 17 and Supplementary Table 4) (FDR=1%; Benjamini-Hochberg correction). Overall 28 of 39 receptors were activated by at least one odorant, and 68 of 182 odorants activated at least one OR (Table 4). We chose 37 interactions of at least 1.2 fold induction to test individually with a previously developed transient OR assay that has several important differences (FIG. 18). Of the 28 interactions called as hits at an FDR of 1%, 21 of them replicated in this orthogonal system (FIG. 17). […] Conversely, we also detect 14 interactions that this previous study tested, but called negative.

MOR189-1 = assay: as above; conditions: OR MOR189-1; pair called as hit, FDR=1%
From the text: as §9

Olfr62 = assay: as above; conditions: OR Olfr62; pair called as hit, FDR=1%
From the text: as §9

MOR136-1 = assay: as above; conditions: OR MOR136-1; pair called as hit, FDR=1%
From the text: as §9

MOR25-1 = assay: as above; conditions: OR MOR25-1; pair called as hit, FDR=1%
From the text: as §9

MOR131-1 = assay: as above; conditions: OR MOR131-1; pair called as hit, FDR=1%
From the text: as §9

MOR5-1 = assay: High-throughput multiplexed odorant screening (Smell-seq), 96-well, barcode RNA-seq readout; conditions: OR MOR5-1; pair called as hit, FDR=1%
Experimental: as §1, §2, §3, §4, §5, §6, §7, §8

MOR23-1 = assay: High-throughput multiplexed odorant screening (Smell-seq), barcode RNA-seq readout; conditions: OR MOR23-1; pair called as hit, FDR=1%
From the text: as §9

MOR13-1 = assay: High-throughput multiplexed odorant screening (Smell-seq), 96-well, barcode RNA-seq readout; conditions: OR MOR13-1; pair called as hit, FDR=1%
From the text: We find that chemicals with similar features activate similar sets of ORs, including those receptors we deorphanize in this study. For example, the previously orphan MOR13-1 is activated by four chemicals with polar groups attached, in three cases, to stiff non-rotatable scaffolds. Another example is, MOR19-1, which has clear affinity for the salicylate functional group. To better understand how chemical similarity relates to receptor activation without relying on incomplete and sometimes arbitrary chemical descriptors, we used a previously validated computational autoencoder to represent each chemical in a ˜292 dimensional latent space, allowing nearly lossless compression of chemical structure (Data not shown). We find chemicals that activate the same OR tend to cluster distinctly (FIG. 10D, FIG. 20). […] Many, but not all of the receptors. […] Understanding the space of chemicals that activates each OR establishes the groundwork for prediction of novel odorant-OR interactions.
as §1, §2
After odor incubation, media was pipetted out of the plates and cells were lysed by adding 25 uL of ice-cold Cells-to-cDNA II Lysis Buffer (Thermo Fisher) and pipetting up and down to homogenize and lyse cells. The lysate was then heated to 75° C. for 15 minutes and flash frozen with liquid nitrogen and kept at −80 C until further processing. Then 0.5 uL DNase I (New England Biolabs) was added to lysate, and incubated at 37° C. for 15 minutes. […]
For each batch, qPCR was performed on a few wells (OL005F and OL013) with SYBR FAST qPCR Mastermix to determine the number of cycles necessary for PCR based library preparation. […] Library concentrations were quantified using a Tape Station 2200 and a Qubit (Thermo Fisher). The libraries were sequenced with two index reads and a single end 75-bp read on a NextSeq 500 in high-output mode (Illumina). […]

MOR30-1 = assay: High-throughput multiplexed odorant screening (Smell-seq), barcode RNA-seq readout; conditions: OR MOR30-1; pair called as hit, FDR=1%
From the text: as §9

c1ccc2ncccc2c1
Minimum Activating Concentration (MOR170-1): 100 µM
Minimum Activating Concentration (MOR139-1): 100 µM
Minimum Activating Concentration (MOR189-1): 1000 µM
Minimum Activating Concentration (Olfr62): 1000 µM

C=C(C)C1CCC(C)C(O)C1 (single isomer, unassigned; (+)) [(+)-Dihydrocarveol]
Minimum Activating Concentration (MOR136-1): 1000 µM

C=C(C)C1CC=C(C)C(=O)C1 (single isomer, unassigned; (-)) [(−)-Carvone]
Minimum Activating Concentration (MOR25-1): 1000 µM

C=C(C)C1CCC(C)C(O)C1 (single isomer, unassigned; (-)) [(−)-Dihydrocarveol]
Minimum Activating Concentration (MOR136-1): 1000 µM
Minimum Activating Concentration (MOR139-1): 1000 µM

C=C(C)C1CC=C(C=O)CC1 (single isomer, unassigned; (-)) [(−)-Perillaaldehyde]
Minimum Activating Concentration (MOR131-1): 1000 µM

CCCCCCO [1-hexanol]
Minimum Activating Concentration (MOR131-1): 1000 µM

CCCCC(Br)C(=O)O (stereo not drawn) [2-Bromohexanoic acid]
Minimum Activating Concentration (MOR170-1): 1000 µM
Minimum Activating Concentration (MOR5-1): 1000 µM

CCCCCCC(Br)C(=O)O (stereo not drawn) [2-Bromooctanoic acid]
Minimum Activating Concentration (MOR5-1): 1000 µM
Minimum Activating Concentration (MOR23-1): 1000 µM

CCc1ccccc1O [2-Ethylphenol]
Minimum Activating Concentration (MOR136-1): 100 µM

CC(=O)OCCc1ccccc1 [2-Phenethyl acetate]
Minimum Activating Concentration (MOR170-1): 1000 µM

O=C1Cc2ccccc2O1 [2-coumaranone]
Minimum Activating Concentration (Olfr62): 1000 µM

CCC(C)c1nccnc1OC (stereo not drawn) [2-sec-Butyl-3-methoxypyrazine]
Minimum Activating Concentration (MOR139-1): 1000 µM

CCC(=O)C(=O)CC [3,4-Hexanedione]
Minimum Activating Concentration (MOR131-1): 1000 µM

O=C1CCOc2ccccc21 [4-Chromanone]
Minimum Activating Concentration (MOR170-1): 100 µM
Minimum Activating Concentration (MOR139-1): 1000 µM
Minimum Activating Concentration (MOR189-1): 1000 µM

CCc1ccc(O)cc1 [4-Ethylphenol]
Minimum Activating Concentration (MOR170-1): 1000 µM

O=C(O)CCCCCBr [6-Bromohexanoic acid]
Minimum Activating Concentration (MOR5-1): 1000 µM
Minimum Activating Concentration (MOR23-1): 100 µM

CC12CCC(CC1=O)C2(C)C (stereo not drawn) [(+)-Camphor]
Minimum Activating Concentration (MOR136-1): 100 µM

C=C(C)[C@@H]1CC[C@@H](C)C(=O)C1 [(+)-Dihydrocarvone]
Minimum Activating Concentration (MOR139-1): 1000 µM

CC(C)=C1CC[C@@H](C)CC1=O [(+)-Pulegone]
Minimum Activating Concentration (MOR139-1): 1000 µM

COc1ccc(C=O)cc1 [Anisaldehyde]
Minimum Activating Concentration (MOR170-1): 1000 µM

O=C(c1ccccc1)c1ccccc1 [Benzophenone]
Minimum Activating Concentration (Olfr62): 1000 µM

CC(=O)OCc1ccccc1 [Benzyl acetate]
Minimum Activating Concentration (MOR170-1): 1000 µM

CCCC=O [Butanal]
Minimum Activating Concentration (MOR139-1): 1000 µM

OCC=Cc1ccccc1 [Cinnamyl alcohol]
Minimum Activating Concentration (MOR170-1): 1000 µM

O=C(O)C1CCC1 [Cyclobutanecarboxylic acid]
Minimum Activating Concentration (MOR13-1): 1000 µM

CCCCCCCCCC=O [Decanal]
Minimum Activating Concentration (MOR25-1): 1000 µM
Minimum Activating Concentration (MOR30-1): 100 µM

CCCCCCCCCC(=O)O [Decanoic-Acid]
Minimum Activating Concentration (MOR5-1): 1000 µM
Minimum Activating Concentration (MOR25-1): 100 µM
Minimum Activating Concentration (MOR30-1): 10 µM

CCCCCC1=C(C)CCC1=O [Dihydrojasmone]
Minimum Activating Concentration (MOR139-1): 1000 µM

CNc1ccccc1C(=O)OC [Dimethyl anthranilate]
Minimum Activating Concentration (MOR170-1): 10 µM
Minimum Activating Concentration (MOR139-1): 1000 µM

C=CCc1ccc(OC)c(OC)c1 [Eugenol methyl ether]
Minimum Activating Concentration (MOR170-1): 10 µM
Minimum Activating Concentration (MOR139-1): 1000 µM
Minimum Activating Concentration (MOR189-1): 1000 µM

C=CCc1ccc(O)c(OC)c1 [Eugenol]
Minimum Activating Concentration (MOR139-1): 1000 µM

CCCCCCC=O [Heptanal]
Minimum Activating Concentration (MOR23-1): 1000 µM

CC(C)=CCC/C(C)=C\COC(=O)C(C)C [Neryl isobutyrate]
Minimum Activating Concentration (MOR139-1): 1000 µM

CCCCCCCCC=O [Nonanal]
Minimum Activating Concentration (MOR5-1): 1000 µM
Minimum Activating Concentration (MOR23-1): 1000 µM
Minimum Activating Concentration (MOR30-1): 1000 µM

CCCCCCCCC(=O)O [Nonanoic Acid]
Minimum Activating Concentration (MOR5-1): 100 µM
Minimum Activating Concentration (MOR23-1): 1000 µM
Minimum Activating Concentration (MOR25-1): 1000 µM
Minimum Activating Concentration (MOR30-1): 100 µM

CCCCCCCC=O [Octanal]
Minimum Activating Concentration (MOR5-1): 1000 µM
Minimum Activating Concentration (MOR23-1): 100 µM

O=Cc1ccc2c(c1)OCO2 [Piperonal]
Minimum Activating Concentration (MOR170-1): 1000 µM
Minimum Activating Concentration (Olfr62): 1000 µM

COc1cc(C=O)ccc1O [Vanillin]
Minimum Activating Concentration (MOR170-1): 1000 µM

C/C=C/C(=O)C1=C(C)CCCC1(C)C [beta-Damascone]
Minimum Activating Concentration (MOR189-1): 1000 µM

CC(=O)/C=C/C1=C(C)CCCC1(C)C [beta-ionone]
Minimum Activating Concentration (MOR139-1): 1000 µM
Minimum Activating Concentration (MOR189-1): 1000 µM

CCCCC/C=C\CCC=O [cis-4-Decenal]
Minimum Activating Concentration (MOR5-1): 1000 µM

CC/C=C\CCCCC=O [cis-6-Nonenal]
Minimum Activating Concentration (MOR5-1): 1000 µM

C/C=C(\C)C=O [trans-2-Methyl-2-butenal (2MB)]
Minimum Activating Concentration (MOR13-1): 1000 µM
